The results in this text go back to patent US5486596A, “Analogues of 8-D-homoarginine vasopressin” (Ceskoslovenska akademie ved, priority 1989, dated 1996).

Test [1] deals with rats. The test can be described thus: antidiuretic activity according to Burn, dDAVP as standard. The class given is in vivo. To be noted: rat, relative to the standard dDAVP. The protocol: The biological activity of the peptides was tested on rats, namely: the uterotonic activity (agonistic and antagonistic) according to the Holton's method (Holtdon, J.: Brit. J. Pharmacol., 3,328, 1960) modified by Munsick (Endocrinology, 66, 451, 1960), the inhibitory activity being expressed as pA2 (Eggen et al.: J. Gen. Physiol., 56, 250, 1970), the pressoric activity was determined on despinalized male rats according to Krejci et al. (Brit. J. Pharm. Chemother., 30, 497, 1967) and the antidiuretic activity according to Burn (Burn et al.: Biol. Stand. Oxford Univ. Press, London, 1950) with [deaminol, D-arginine^8 ]vasopressin (dDAVP) used as the standard.

Test [2] concerns rats. The settings on record: for Uterotonic activity: agonistic activity, rat.
The test system of test [3] is FVIII. The test can be described thus: FVIII activity in squirrel monkeys (blood coagulation). The class given is in vivo. The settings on record: for FVIII/%: squirrel monkeys, saline control = 100% (basal value). Here is the method:
(§1) Compounds of the present invention ware evaluated for their ability to affect blood coagulation and fibrinolytic properties. The compounds were compared with [8-D-argenine]deamino vasopressin in squirrel monkeys. The findings of dissociated blood coagulation/fibrinolytic properties and the inhibitory properties are new and surprising properties for the series of vasopressin derived peptides.

Test [4] deals with tPA. As to the kind of experiment: tPA activity in squirrel monkeys (fibrinolytic properties). The class given is in vivo. The settings on record: for tPA/%: squirrel monkeys, saline control = 100% (basal value). Here is the method:
as §1

For test [5], the system named is despinalized male rats. The settings on record: for Pressoric activity: despinalized male rats.
Setting [6] is: inhibitory (antagonistic) activity expressed as pA2, rat.
[7] abbreviates: inhibitory activity expressed as pA2, despinalized male rats.

Like-named read-outs stand apart in the source and are kept apart here. Bridge positions count the residues as written; N and C are the ends. Square brackets hold non-standard residues; d marks the D form. Peptide text beside a SMILES is read from it. dPhe(4-Et) = CCc1ccc(C[C@@H](N)C(=O)O)cc1; dPhe(4-Me) = Cc1ccc(C[C@@H](N)C(=O)O)cc1; Phe(4-Et) = CCc1ccc(C[C@H](N)C(=O)O)cc1; Phe(4-Me) = Cc1ccc(C[C@H](N)C(=O)O)cc1; d(hArg) = N=C(N)NCCCC[C@@H](N)C(=O)O; Mpa = O=C(O)CCS Bounds are passed on as bounds.

With “[D--Har^8 ] vasopressin [reference compound]”, the Antidiuretic activity in test [1] is reported as ~ 1 % dDAVP. Moreover, the Uterotonic activity in test [2] came out at 0.9 IU/mg.
Take “[2-p-methyl-D-phenylalanine, 8-D-homoarginine]vasopressin”: the Antidiuretic activity in test [1] is recorded as under 0.1 % dDAVP. In test [3], this compound gave an FVIII/% of 55%. This compound also came in with a tPA/% in test [4] of 65%. In addition, the “Uterotonic activity, pA2” value in test [2] (setting [6]) stood at 6.85. In addition, in test [5], the Pressoric activity is given as 0.04 IU/mg.
On to `COc1ccc(C[C@@H]2NC(=O)[C@@H](N)CSSC[C@@H](C(=O)N3CCC[C@H]3C(=O)N[C@H](CCCCNC(=N)N)C(=O)NCC(N)=O)NC(=O)[C@H](CC(N)=O)NC(=O)[C@H](CCC(N)=O)NC(=O)[C@H](Cc3ccccc3)NC2=O)cc1` [I, [2-O-methyltyrosine, 8-D-homoarginine]vasopressin], for which, in test [2], the “Uterotonic activity, pA2” value is 7.7.
In turn, “[2-p-ethyl-L-phenylalanine, 8-D-homoarginine]vasopressin [II]” showed an Antidiuretic activity in test [1] of under 0.1 % dDAVP. In addition, the “Uterotonic activity, pA2” value in test [2] (setting [6]) is 7.40. Also, the “Pressoric activity, pA2” value in test [5] (setting [7]) was 6.5.
`Cc1ccc(C[C@@H]2NC(=O)CCSSC[C@@H](C(=O)N3CCC[C@H]3C(=O)N[C@H](CCCCNC(=N)N)C(=O)NCC(N)=O)NC(=O)[C@H](CC(N)=O)NC(=O)[C@H](CCC(N)=O)NC(=O)[C@H](Cc3ccccc3)NC2=O)cc1` [IX, [Mpr^1, L-p-MePhe^2, D--Har^8] vasopressin] ([Mpa][Phe(4-Me)]FQNCP[d(hArg)]G-NH2; disulfide 1-6): in test [2], the “Uterotonic activity, pA2” value is 8.38. For the same compound, in test [5] (rat, in vivo), the “Pressoric activity, pA2” value was 6.2.
The corresponding values for `CCc1ccc(C[C@@H]2NC(=O)CCSSC[C@@H](C(=O)N3CCC[C@H]3C(=O)N[C@H](CCCCNC(=N)N)C(=O)NCC(N)=O)NC(=O)[C@H](CC(N)=O)NC(=O)[C@H](CCC(N)=O)NC(=O)[C@H](Cc3ccccc3)NC2=O)cc1` [VII, [Mpr^1, L-p-EtPhe^2, D--Har^8] vasopressin] ([Mpa][Phe(4-Et)]FQNCP[d(hArg)]G-NH2; disulfide 1-6) are 8.0 and 6.2.
With [8-D-arginine] deamino vasopressin, the “effect on expression of Factor VIII, in words” value in test [3] (monkey, in vivo) is on record as “increase”. In addition, the FVIII/% in test [3] is reported as 149%. Further, the “effect on expression of tPA, in words” value in test [4] (monkey, in vivo) is “increase”. In addition, the tPA/% in test [4] worked out at 138.9%.
With `COc1ccc(C[C@@H]2NC(=O)CCSSC[C@@H](C(=O)N3CCC[C@H]3C(=O)N[C@H](CCCCNC(=N)N)C(=O)NCC(N)=O)NC(=O)[C@H](CC(N)=O)NC(=O)[C@H](CCC(N)=O)NC(=O)[C@H](Cc3ccccc3)NC2=O)cc1` [VI, [1-mercaptopropionic acid, 2-O-methyltyrosine 8-D-homoarginine]vasopressin], the “Uterotonic activity, pA2” value in test [2] is given as 8.1.
“[2-p-ethyl-D-phenylalanine, 8-D-homoarginine]vasopressin [III]” had an Antidiuretic activity in test [1] of under 0.1 % dDAVP. The “Uterotonic activity, pA2” value in test [2] (setting [6]) was found to be 8.15. Also, the “Pressoric activity, pA2” value in test [5] (setting [7]) was determined as 6.5.
In the case of `CCc1ccc(C[C@H]2NC(=O)CCSSC[C@@H](C(=O)N3CCC[C@H]3C(=O)N[C@H](CCCCNC(=N)N)C(=O)NCC(N)=O)NC(=O)[C@H](CC(N)=O)NC(=O)[C@H](CCC(N)=O)NC(=O)[C@H](Cc3ccccc3)NC2=O)cc1` [VIII, [Mpr^1, D-p-EtPhe^2, D--Har^8] vasopressin] ([Mpa][dPhe(4-Et)]FQNCP[d(hArg)]G-NH2; disulfide 1-6), the “Uterotonic activity, pA2” value in test [2] was found to be 8.63. For the same compound, in test [5] (rat, in vivo), the “Pressoric activity, pA2” value was found to be 6.35.
In the case of “[2-p-methyl-L-phenylalanine, 8-D-homoarginine]vasopressin [IV]”, in test [1], the Antidiuretic activity is given as under 0.1 % dDAVP. In test [3], this compound had an FVIII/% of 85%. Moreover, in test [4], the tPA/% is given as 77%. The “Uterotonic activity, pA2” value in test [2] (setting [6]) came to 6.85. This compound also registered a Pressoric activity in test [5] of 0.04 IU/mg.
In the case of `Cc1ccc(C[C@H]2NC(=O)CCSSC[C@@H](C(=O)N3CCC[C@H]3C(=O)N[C@H](CCCCNC(=N)N)C(=O)NCC(N)=O)NC(=O)[C@H](CC(N)=O)NC(=O)[C@H](CCC(N)=O)NC(=O)[C@H](Cc3ccccc3)NC2=O)cc1` [X, [Mpr^1, D-p-MePhe^2, D--Har^8] vasopressin] ([Mpa][dPhe(4-Me)]FQNCP[d(hArg)]G-NH2; disulfide 1-6), the “Uterotonic activity, pA2” value in test [2] stood at 8.68.
On to “[Mpr^1, D--Har^8 ] vasopressin [reference compound]”, for which the Antidiuretic activity in test [1] was ~ 5 % dDAVP. In test [3], this compound returned an FVIII/% of 127%. The compound also had a tPA/% in test [4] of 88%. The compound further registered a Uterotonic activity in test [2] of 0.8 IU/mg. This compound showed a Pressoric activity in test [5] of 0.28 IU/mg.
